The results in this text go back to a melting point compilation (Tetko et al.; mined from patent text by program, amines drawn as free bases though some values may be those of a salt).

SMILES strings stand for the structures.

By melting point is commonly meant the temperature, or range, at which the solid turns liquid. In turn, `CC(C)[Si](Oc1cc(C=O)c2c(c1)C1(C)CCN(C)C1N2C)(C(C)C)C(C)C` (stereo not drawn) registered a melting point of 42 to 45 °C.

Compound `Cc1nc2nc(S(=O)(=O)Nc3c(Cl)cccc3Cl)nn2cc1Br` showed a melting point of 215 to 216 °C.

The compound `CC(C)[Si](C)(C)CCSCCCNC(=O)n1cc(F)c(=O)[nH]c1=O` registered a melting point of 122 to 123 °C.

The compound `CC(=O)OCC1CCn2c(c(C3=C(c4cccc(C(F)(F)F)c4)C(=O)OC3=O)c3ccccc32)C1` (stereo not drawn) displayed a melting point of 176 to 177 °C. Take `COc1ccc(C=CC(=O)CC(=O)C=Cc2ccc(OC)cc2)cc1`: the melting point is 154 to 155 °C. Regarding `C#CCOc1ccc2c(c1)c(-c1ccc(C3CC3)cc1)nc(=O)n2Cc1ccccc1`, the melting point was 112 to 113 °C. `COc1cccc(Oc2c(NS(=O)(=O)c3ccc(C(C)(C)C)cc3)ncnc2OCCOc2ncc(C(C)O)cn2)c1` (stereo not drawn): the melting point lay in the range of 133 to 135 °C. In the case of `CCn1c(=O)[nH]c2ncccc2c1=O`, the melting point was 240 to 241 °C. Under `CC(C)n1nc(-c2cc(C#N)cnc2-c2ccccc2)ccc1=O` stands 133 to 135 °C. `COc1cc2c(cc1Nc1ncc(Cl)c(Nc3ccccc3S(=O)(=O)N3CCC(O)C3)n1)CCN(CC(=O)N(C)C)CC2` (stereo not drawn) came in with a melting point of 70 to 84 °C. Under `CC(C)OC(=O)c1nc(Cl)sc1Cl` stands 46 °C; under `CC(C)(C)C(NC(=O)COc1ccccc1)Nc1c(Nc2cccnc2Cl)c(=O)c1=O` (stereo not drawn), 220 to 221 °C; under `CC1(C)CC(O)CC(C)(C)N1CC(O)CO` (stereo not drawn), 97 to 99 °C. Consider `Cc1cc2c(Cl)ccc(-n3c(=O)cc(C(F)(F)F)n(C)c3=O)c2o1`, for which the melting point was 206 to 207 °C. `CCn1ccnc1CNC(=O)c1[nH]c2ccc(Cl)cc2c1S(=O)(=O)c1ccccc1` showed a melting point of 204 to 206 °C. For `CCOC(=O)Cc1c(-c2ccccc2)c2cc(COC(C)=O)c(COC(C)=O)cc2oc1=O` the value was 95 to 96 °C; for `COc1cc2c(-c3ccnc(NN)c3)c(CO)c(CO)cc2cc1OC(C)C`, 128 to 131 °C; for `CCC1CCc2c(sc3cc(N)ccc3c2=O)C1` (stereo not drawn), 187 °C. `CN(C)S(=O)(=O)c1ccc2c(c1)S(=O)(=O)NC(C1CCCCC1)N2` (stereo not drawn): the melting point fell in the range of 243 to 245 °C. Under `CC(C)(c1ccccc1)c1ccc(N)c(S(=O)(=O)O)c1` stands 263 to 265 °C. `COc1cc(=O)n(-c2cccc(C(F)(F)F)c2)nc1C(=O)N(C)OC` showed a melting point of 127 to 129 °C. For `COc1c(F)cc(-c2cncc(OC3SCC(O)C(O)C3O)c2)cc1F` (stereo not drawn) the value was 203 °C; for `COc1ccc(C2=NN(Cc3cccnc3)C(=O)[C@H]3CC=CC[C@@H]23)cc1OC` (relative stereo), 117 to 120 °C.

Consider `O=C(CN1C(=O)c2ccccc2C1=O)Nc1ccccc1Cl`, for which the melting point worked out at 250 °C.

Take `C1=C(c2ccccc2)CC(CN2CCN(c3ccccn3)CC2)C1` (stereo not drawn): the melting point lay within 100 to 101 °C. Under `CN(C)C1CNc2c(cc(Br)cc2[N+](=O)[O-])C1` (stereo not drawn) stands 88 to 91 °C. Consider `CCCc1cc(Cl)c2oc(C(=O)c3ccc(OC)cc3)c(C)c2c1O`, for which the melting point lay in the range of 103 to 105 °C. The compound `COc1ccc(C2=CCC(=O)CC2)c2c1OCCO2` came in with a melting point of 56 to 59 °C. Under `COC(=O)c1ccccc1C1NC(=S)C(C)(C(C)C)N1` (stereo not drawn) stands 115 to 121 °C.

`Cc1ccc2ccc(=O)oc2c1C` came in with a melting point of 122 to 123 °C. On to `COc1ccc(NC(=O)c2ccc(-c3ccncc3)s2)cc1N1CCN(C)CC1`, for which the melting point was in the range of 191 to 194 °C.

On to `CCN1CCCC1CNC(=O)c1c(O)c(Cl)cc(Cl)c1OC` (single isomer, unassigned; (-)), for which the melting point is 48 to 49 °C.

In the case of `Cc1coc(C)c1-c1nc2ccc(C(=O)c3ccccc3)cc2[nH]1`, the melting point fell in the range of 203 to 208 °C. For `O=C1N[C@H](Cc2ccc(CC(F)(F)C(F)(F)F)cc2)[C@H](c2cccc(Cl)c2)O1` (racemic) the value was 137 to 138 °C; for `COC(=O)Nc1ccc(-c2ncon2)cc1`, 174 to 176 °C; for `Cc1csc2c(Br)cc3cc(C(=O)O)[nH]c3c12`, 229 to 241 °C. For `N#Cc1cnn(-c2ccc(Cl)c(Cl)c2Cl)c1NC(=O)CCCCl` the value was 173 to 174 °C; for `CCc1cc(N(C=O)c2ccccc2)cc(CC)c1N(C(N)=S)C(C)(C)C`, 160 to 162 °C.

As to `CCSc1ccc(SCC)c(C#N)n1`, the melting point fell in the range of 63 to 64 °C. For `COC(=O)CCC#Cc1cc(Cl)ccc1N` the value was 67 °C. The compound `Cc1csc2c1S(=O)(=O)N(C)C(C(=O)Nc1cccccc1=O)=C2O` gave a melting point of 229 to 233 °C. For `COC(=O)c1ccc(Nc2ccc(C#N)cc2NC(C)=O)cc1` the value was 231 to 232 °C; for `CSc1ccc(C(=O)COc2ccc(F)cc2F)cc1`, 70 to 71 °C. The compound `CC(=O)N(C)C(=N[N+](=O)[O-])NCc1csc(Cl)n1` returned a melting point of 105 to 108 °C. `Cc1cccc(C#C[C@@]2(O)CCC[C@@H](NC(=O)c3ccco3)C2)c1` came in with a melting point of 139 to 142 °C. Take `O=c1ccn(-c2cccc(C(F)(F)F)c2)nc1-c1c(F)cnn1-c1ccccc1`: the melting point was in the range of 156 to 158 °C. Under `CN1C2CCC1CC(O)(c1ccc(F)cc1)C2` (stereo not drawn) stands 169 °C.

Take `CCCc1c(C)[nH]c(C(=O)OCC)c1C`: the melting point was 104 to 106 °C. Turning to `COc1ncc(C2Nc3ccccc3C(=O)N2c2cccc(C(F)(F)F)c2)cc1Br` (stereo not drawn), the melting point was 192 to 193 °C.

The compound `Cc1ccccc1S(=O)(=O)Nc1onc(C)c1Br` came in with a melting point of 93 to 96 °C. As to `N=C(N)Nc1nc(CSCCNC=NS(=O)(=O)c2ccc(Br)cc2)cs1`, the melting point is 142 to 146 °C. For `CC(C)c1nc2c(c(-c3ccc(F)cc3)c1CO)CCCC2(C)C`, the melting point was in the range of 146 to 149 °C. For the compound `CN(CC(=O)C(Cc1cccnc1)NC(=O)c1ccccc1)C(=O)N1CCCC1C(=O)O` (stereo not drawn), the melting point was 92 to 120 °C. For `CCc1nc2c(N)nc3cccnc3c2n1CC1(O)CCN(C(=O)OC(C)(C)C)CC1` the value was 233 to 235 °C; for `O=C(O)C1=Cc2cc(Cl)c(Oc3cccc(C(=O)O)c3)cc2OC1C(F)(F)F` (stereo not drawn), 288 to 289 °C. Take `CCOC(=O)C(C(=O)Nc1nccs1)C(=O)c1cccc(C(F)(F)F)c1NC(=O)C(Cl)C(C)(C)C` (stereo not drawn): the melting point came out at 180 °C. For `CC(C)CSc1ccnc(OS(C)(=O)=O)c1` the value was 34 to 35 °C; for `NC(=O)c1sc(-n2cnc3cnccc32)cc1OCc1ccccc1C(F)(F)F`, 226 to 227 °C. For `O=C(Nc1ccc2nc(CN3CCCCC3)ccc2c1)c1ccc(-c2ccc(F)cc2)cc1` the value was 202 to 204 °C; for `CCOC(=O)C(=CC=C(SC)C(=O)c1ccccc1)N(C)C`, 78 °C; for `Nc1cccc(CCCOCCCCCCNCC(O)c2cc(Cl)c(N)c(Cl)c2)n1` (stereo not drawn), 62 to 65 °C. For `c1ccc2c(c1)nc1n2CCCO1` the value was 116 to 118 °C.

`CCCCCCCCCCCCCCOCC(O)CO` (stereo not drawn) displayed a melting point of 56 to 57 °C. Under `COc1ccc(-c2sc3c(c2C)c(=O)c(C#N)cn3Cc2ccccc2F)cc1` stands 215 to 216 °C; under `COc1c(N2CC(F)[C@](C)(N)C2)c(F)cc2c(=O)c(C(=O)O)cn([C@@H]3C[C@@H]3F)c12` (stereo partly drawn), 160 to 163 °C. With `O=C(O)CNC(=O)c1nnc2ccc(NCCCN3CCC(OC(c4ccccc4)c4ccccc4)CC3)nn12`, the melting point was 182 to 184 °C. `COC(=O)c1nc(-c2cc(OC)c(Cl)cc2F)cc(NC(C)=O)c1Cl` returned a melting point of 180 to 182 °C. As to `COC(=O)c1cc(C(=O)c2ccccc2)ccc1OC`, the melting point was found to be 88 °C. Under `CC(O)c1ccc(Cc2cn(-c3ccc(F)cc3)c3ncccc3c2=O)cc1` (stereo not drawn) stands 197 to 198 °C; under `CCCn1cnc2c1c(=O)n(CCCCCCOc1ccc(OC)cc1)c(=O)n2C`, 56 to 67 °C. Under `O=C(c1ccccn1)c1csc(-c2ccccc2)n1` stands 95 to 97 °C; under `OCCCc1ncnn1C(c1ccccc1)(c1ccccc1)c1ccccc1`, 150 to 152 °C; under `Cc1sc(C)c2c1CCCC2(O)c1cn(C(c2ccccc2)(c2ccccc2)c2ccccc2)cn1` (stereo not drawn), 111 to 115 °C.

Consider `O=C(O)c1ccc2n1Cc1ccccc1N(C(=O)COc1ccc(Cl)cc1)C2`, for which the melting point was 168 °C. Regarding `CC(=O)Oc1c(C)cc(C(=O)c2ccc(C(=O)c3cc(C)c(OC(C)=O)c(C)c3)cc2)cc1C`, the melting point lay within 255 to 256 °C. As to `CCC(COC)n1cnc2c(Nc3ccc(C(F)(F)F)cc3Br)nc(C)nc21` (stereo not drawn), the melting point fell in the range of 123 to 124 °C. For `CCCCCCCCCCCCCCCCCCOc1cc2ccccc2c(N)c1O` the value was 97 to 99 °C. Under `CC(C)n1cc(-c2ccc(Oc3ccccc3)cc2)c2c(N)ncnc21` stands 155 to 156 °C; under `COC(=O)c1cccc(COc2cccc(OCc3ccc4ccccc4n3)c2)c1`, 93 to 94 °C; under `O=c1cc(-c2ccccc2)n(-c2ccccc2)c(-c2ccccc2)c1C(F)(F)F`, 222 to 225 °C. Under `CCCCCCCCNC(=O)/C=C\SC(=O)CC` stands 68 to 70 °C. `CCNc1cncc(C#N)c1` displayed a melting point of 110 °C.

Turning to `COc1ccc(-c2cc(-c3ccc(-c4c(Cc5ccccc5)sc5ccccc45)cc3)cc(Br)c2OCC(=O)O)cc1OC`, the melting point was in the range of 103 to 105 °C. For `CN(C)CCNC(=S)Nc1ccc(-c2nnc(CSCCOc3ccccc3)o2)cc1`, the melting point lay within 155 to 158 °C. For the compound `CCOC(=O)c1cc([N+](=O)[O-])c(N)nc1C(=O)OCC`, the melting point fell in the range of 120 to 122 °C. For `CCOc1cc2c(=O)[nH]cnc2cc1OC(C)C` the value was 204 to 205 °C; for `OCc1ccc2c(c1)ncn2-c1cccc(-c2ccccc2)c1`, 130 to 131 °C. In turn, `CS(=O)(=O)C(=C1CN(C(c2ccccc2)c2ccccc2)C1)c1cccc(Cl)c1` had a melting point of 205 °C.
